Measurements published in patent US8716180B2 (priority 2005, dated 2014).
Like-named read-outs stand apart in the source and are kept apart here.

Test system: GFP genetically modified strain of F. graminearum
Type: in vivo, Fusarium graminearum
Conditions: seed treatment 5 g a.i./100 kg seeds

Measured: Intensity of F. graminearum (PCR analysis: 0 to 4 scale)

N#Cc1c[nH]cc1-c1cccc2c1OC(F)(F)O2 [Lot B, fludioxonil]
0: Beginning of earing (GS 51), 1st internode | Beginning of earing (GS 51), 2nd internode | Beginning of earing (GS 51), 3rd internode | Beginning of earing (GS 51), 4th internode | Beginning of earing (GS 51), ear | Ear 1-2 cm (GS 31), First internode | Ear 1-2 cm (GS 31), Future internodes and ear | Ear 1-2 cm (GS 31), Second internode | End of tillering (GS 29), Above bottom of the plant (0.5 cm) | End of tillering (GS 29), Bottom of the plant (0.5 cm) | End of tillering (GS 29), Secondary roots | End of tillering (GS 29), primary roots | End of tillering (GS 29), rhizome | Full maturity (GS 94), 1st internode | Full maturity (GS 94), 2nd internode | Full maturity (GS 94), 3rd internode | Full maturity (GS 94), 4th internode | Full maturity (GS 94), 5th internode | Full maturity (GS 94), Ear + grains
